Ends that are not written are not given here.
Assays:
Format in all cases: cell-based
[1] = system: dermal fibroblasts; experiment: Protection against oxidative damage: carbonylation of proteins (EIA/ELISA with DNP); conditions: for decrease in carbonylation: peptide 1% solution at 50 ppm, 72 hours before, during, 24 hours after stress
From the text: The goal of this study is to determine the protector effect of the peptide SEQ ID no 1 with respect to dermal fibroblasts subjected to oxidative stress caused by UV rays or hydrogen peroxide (H2O2). To evaluate the oxidative damage suffered by the cells, measurements of the carbonylation of the proteins was done.
The carbonylation of proteins is the result of the oxidative splitting of proteins or oxidation of the arginine residues, lysine, proline or threonine. The dosage of the carbonylation of proteins is done using an EIA (Enzyme Immuno Assay) technique.
Fibroblasts in culture were placed in the presence of the peptide SEQ ID no 1 in a 1% solution, at 50 ppm, 72 hours before, during, and also 24 hours after the oxidative stress (UVB irradiation of 50 mJ/cm^2 or treatment par 2 mM of H2O2). untreated controls not subjected to oxidative stress are done.
The degree of carbonylation consists in the use of DNP (dinitrophenyl) which has the property to se fixer specifically on these carbonyl groups of the proteins. The fixed DNP is then assayed using an ELISA method, thanks to an anti-DNP antibody linked to peroxydase. A range of BSA (bovine albumin serum) oxidized (with a known concentration of carbonyl groups) is used for calibration.

[2] = system: Biopsies of human skin; experiment: Protection against stress induced by glycation, ex vivo skin culture, H&E histology; conditions: methyl glyoxal at 5 or 10 mM; peptide 1% of a 50 ppm mother solution, 24 hours before and 24 hours after glycation agent
Description: The goal of this study is to determine the protective effective of the peptide SEQ ID no 1, with respect to ex vivo epidermal culture subjected to stress by a glycation agent.
Biopsies of human skin are maintained in ex vivo culture, treated with a 1% solution, a mother solution of 50 ppm of peptide SEQ ID no 1, 24 hours before, and also 24 hours after the introduction of a glycation agent (methyl glyoxal at 5 or 10 mM). Histology hematoxyline-eosine (H&E) staining makes it possible to evaluate the quality of skin structures.

[3] = system: dermal fibroblasts; experiment: Synthesis of intracellular ATP (ATP Bioluminescence Assay Kit HS II); conditions: 1% solution of a 50 ppm solution of peptide, compared to the untreated cells
Description: The goal of this study is to determine the influence of the peptide SEQ ID no 2 on the synthesis of ATP.
This study was conducted using an “ATP Bioluminescence Assay Kit HS II” Kit (Roche Applied Science):
The dermal fibroblasts are treated with a 1% solution, a solution a 50 ppm, containing the peptide SEQ ID no 2, representative of the family of peptides according to the invention, for a period lasting from 1 to 3 hours. At the end of the incubation period, the wells are emptied of their medium and rinsed with 2 ml of cold PBS before adding 250 μl of a lysis buffer supplied by the kit. The cells of each well are then scrapped, then collected in 14 ml tubes. Each well is rinsed with 2×500 μl of cold PBS and everything is against collected the respective tubes. Beginning with these samples, a 1/12000th dilution is done in cold PBS before each reading. The dosage of ATP is done on these samples: 50 μL of this dilution is placed in a luma basin and 50 μl of luminol are added. After 10 seconds, the luminescence read is triggered. The values are standardized with respect to the quantity of proteins for each sample. The measures are done using an apparatus: the Biocounter M2010A LUMAC®/3M.

| Substance | decrease in carbonylation ([1]; UVB irradiation of 50 mJ/cm^2, compared to irradiated cells not treated) | reduction in the carbonylation of proteins ([1]; cells treated with peptide (1% solution, at 50 ppm), compared to the untreated cells) | decrease in carbonylation ([1]; oxidative stress by 2 mM of H2O2, compared to stressed cells not treated) | evaluation of the skin structures (H&E staining) [2] | increase in the quantity of intracellular ATP ([3]; after 1 hour of culture) | increase in the quantity of intracellular ATP ([3]; after 3 hours of culture) |
| --- | --- | --- | --- | --- | --- | --- |
| Ala-Val-Leu-Ala-Gly-Asp-NH2 (AVLAGD-NH2) [peptide SEQ ID no 1] | 20% | 30% | 20% | net resistance to cellular stress induced by glycation | – | – |
| AVLAGD [peptide SEQ ID No 2] | – | – | – | – | 17% | 67% |

Reference: patent US8440789B2, “Pharmaceutical and/or cosmetic composition containing an active antioxydant principle and cell energy activator” (Societe d'Extraction des Principes Actifs (Vincience), priority 2007, dated 2013)
